# Entries after “also recorded” stand apart in the source; their conditions may differ.
# Columns and labels:
# Type in all cases: in vivo, human
# [1] = system: patients with PD and constipation; assay: Phase 2 trial Stage 2: bowel function with daily oral dosing escalated to a fixed dose
# Protocol: Following successful screening, all subjects underwent a 14-day run-in period where the degree of constipation was assessed through a validated daily log (Zinsmeister et al. 2013) establishing baseline CSBMs/week. Subjects with an average of <3 CSBMs/week proceeded to dosing.
# In Stage 2, 34 patients were evaluated. […] This dose was then maintained (“fixed dose”) fir an additional 3-5 days.
# The primary efficacy outcome variable was whether or not a subject was a “success” or “failure”. This is an endpoint based on subject diary entries for the “fixed dose” period prior to the endpoint assessment defined as average complete stool frequency increase by 1 or more over baseline, or 3 or more complete spontaneous stools/week. The subject was deemed a “success” if s/he met one or more of the criteria listed above, otherwise the subject was deemed a “failure”. The primary analysis was based on all subjects with a baseline assessment and an assessment at the end of the “fixed-dose” period and was a comparison of the proportion of successes with 0.10 (the null hypothesis corresponding to no treatment effect).
# The proportion of subjects for whom the drug was a success was estimated with a binomial point estimate and corresponding 95% confidence interval. A secondary analysis compared the proportions of subjects who are deemed a success at the end of the randomized fixed-dose period between those randomized to the squalamine (ENT-01) arm and those randomized to the placebo arm. A Fisher's exact test was used to compare the proportions of subjects who were deemed a success at the end of randomization period between the two randomized arms
# [2] = system: patients with PD and constipation; assay: Phase 2 trial Stage 1: adverse events; conditions: Stage 1, 10 dosed
# From the text: Tolerability limits included diarrhea or vomiting.
# [3] = system: patients with PD and constipation; assay: Sleep diary in Stage 2: total sleep time, arm or leg thrashing (RBD); conditions: baseline to maximal dose
# Protocol: FIG. 3 is a chart of total sleep time in relation to squalamine dose. Total sleep time was obtained from the sleep diary by subtracting awake time during the night from total time spent in bed. Total sleep time per night was logged for each patient at baseline, each dosing period and at washout, and the means were determined. The light grey bar represents the baseline value for each cohort at a given dose level and the dark grey bar represents the value for the same cohort at the stated dose of squalamine (ENT-01; Kenterin™). The number of patients represented at each value are: Baseline, 33; 75 mg, 21; 100 mg, 28; 125 mg, 18; 150 mg, 15; 175 mg, 12; 200 mg, 7; 225 mg, 3; 250 mg, 2; washout, 33. P values were as follows: 75 mg, p=0.4; 100 mg, p=0.1; 125 mg, p=0.3; 150 mg, p=0.07; 175 mg, p=0.03; 200 mg, p=0.3; 225 mg, p=0.5; 250 mg, p=0.3; wash-out, p=0.04 (paired t test).
# (5) Sleep Diary (participants completed a sleep diary on a daily basis throughout the study. The diaries included time into bed and estimated time to sleep as well as wake time and duration during the night.); […]
# [4] = system: patients with PD and constipation; assay: Circadian rhythm of wrist skin temperature; conditions: for circadian rhythm of wrist skin temperature (IS, RA, CFI, IV): 12 evaluable patients, fixed dose versus baseline
# Protocol: (6) I-Button Temperature Assessment. The 1-Button is a small, rugged self-sufficient system that measures temperature and records the results in a protected memory section. The Thermochron I-Button DS1921H (Maxim Integrated, Dallas, Tex.) was used for skin temperature measurement. I-Buttons were programmed to sample every 10 mins., and attached to a double-sided cotton sport wrist band using Velcro, with the sensor face of the I-Button placed over the inside of the wrist, on the radial artery of the dominant hand. Subjects removed and replaced the data logger when necessary (i.e., to have a bath or shower). The value of skin temperature assessment in sleep research is that the endogenous skin warming resulting from increased skin blood flow is functionally linked to sleep propensity. From the collected data, the mesor, amplitude, acrophase (time of peak temperature), Rayleight test (an index of interdaily stability), mean waveforms are calculated.);
# Assessments were made at baseline and at the end of the fixed dose and washout periods. Circadian system status was evaluated by continuously monitoring wrist skin temperature (Thermochron iButton DS1921H; Maxim, Dallas) following published procedures (Sarabia et al. 2008).
# Circadian rhythm of skin temperature was evaluable in 12 patients (i.e., those who had recordings that extended from baseline through washout). Circadian system functionality was evaluated by continuously monitoring wrist skin temperature using a temperature sensor (Thermochron iButton DS1921H; Maxim, Dallas, Tex.) (Sarabia et al. 2008). […]
# Briefly, this analysis includes the following parameters: (i) the inter-daily stability (the constancy of 24-hour rhythmic pattern over days, IS); (ii) intra-daily variability (rhythm fragmentation, IV); (iii) average of 10-minute intervals for the 10 hours with the minimum temperature (L10); (iv) average of 10-minute intervals for the 5 hours with the maximum temperature ([…]) and the relative amplitude (RA), which was determined by the difference between M5 and L10, divided by the sum of both. […]
# [5] = system: patients with PD and constipation; assay: Systolic blood pressure in Stage 1 (single dose); conditions: lying position
# From the text: Normalization refers to lowering high blood pressure and raising low blood pressure into normal ranges. The numbers shown in the graph represent baseline BP then highest treatment BP, both in the lying position, pre-medication. The result is significant despite the small sample size (p=0.01).
smiles,measurement,setting,value
"CC(C)[C@@H](CC[C@@H](C)[C@H]1CC[C@H]2[C@@H]3[C@H](O)C[C@H]4C[C@@H](NCCCNCCCCN)CC[C@]4(C)[C@H]3CC[C@]12C)OS(=O)(=O)O (single isomer, unassigned) [ENT-01, squalamine]","decrease of rescue medication use, baseline to fixed dose","[1]; Stage 2, 1.8/week to 0.3",83%
same,"improvement of SBM, baseline to fixed dose","[1]; Stage 2, 2.6 to 4.5",73%
same,Ease of passage (Ease of evacuation scale 1-7),"[1]; Stage 2, at fixed dose, mean (SD), baseline 3.2, listed as aminosterol",3.7
same,"Abdominal pain, mild",[2],"2(20) n, %"
same,"Abdominal pain, moderate",[2],"3(30) n, %"
same,"Diarrhea, mild",[2],"1(10) n, %"
same,"Diarrhea, moderate",[2],"3(30) n, %"
same,"Flatulence, mild",[2],"2(20) n, %"
same,"Headache, mild",[2],"1(10) n, %"
same,"Vomiting, mild",[2],"1(10) n, %"
same,"Blood in urine, mild",[2]; unrelated to ENT-01,"1(10) n, %"
same,"Loss of appetite, mild",[2]; unrelated to ENT-01,"1(10) n, %"
same,improvement of arm or leg thrashing frequency,[3],100%
same,"circadian rhythm of wrist skin temperature (IS, RA, CFI, IV)",[4],significant positive impact; also recorded: improved all markers of healthy circadian function
same,"circadian rhythm of wrist skin temperature (IS, RA, CFI, IV)",[4]; listed as Aminosterol,improved all markers of healthy circadian function
same,circadian rhythm parameters during wash-out,"[4]; wash-out period (IS, CFI)",persisted for several of these circadian parameters
same,effect on systolic BP,[5],normalization of systolic BP
